Data set [1] has as its system common lambsquarters (Ch). The data set is described as follows: Test Example 9: crop plant selectivity by upland field foliage treatment (wheat), herbicidal effects. It counts as in vivo. Particulars: dose 1.6 g ai/10a, 14th day after treatment. Also on record: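 grade of growth control; 5 = at least 90%; 4 = 70 to 90%; 3 = 50 to 70%; 2 = 30 to 50%; 1 = 10 to 30%; 0 = under 10%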. The procedure:
(§1) (Test on Crop Plant Selectivity by Upland Field Foliage Treatment)
(§2) In a plastic pot (surface area: 600 cm^2) filled with sand, wheat (Tr), pale smartweed (Po), slender amaranth (Am), common lambsquarters (Ch) and China jute (Ab) were sown and cultured in a green house for 2 weeks. […] The plants were then cultured in a green house, and the evaluation of the herbicidal effects and phytotoxicity was conducted on the 14th day after the treatment in accordance with the standards as identified in Table 47.

Data set [2] relates to pale smartweed (Po). Described as above. The conditions noted are these: dose 1.6 g ai/10a, 14th day after treatment. Also on record: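 grade of growth control; 5 = at least 90%; 4 = 70 to 90%; 3 = 50 to 70%; 2 = 30 to 50%; 1 = 10 to 30%; 0 = under 10%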. The data set is classed as in vivo. How it is done:
as §1, §2

The subject of data set [3] is slender amaranth (Am). The data set is described as above. It counts as in vivo. Further details: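 grade of growth control; 5 = at least 90%; 4 = 70 to 90%; 3 = 50 to 70%; 2 = 30 to 50%; 1 = 10 to 30%; 0 = under 10%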. The conditions noted are these: dose 1.6 g ai/10a, 14th day after treatment. The procedure: as §1, §2
In data set [4] the test system is China jute (Ab). The data set is described as above. It counts as in vivo. Further details: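 grade of growth control; 5 = at least 90%; 4 = 70 to 90%; 3 = 50 to 70%; 2 = 30 to 50%; 1 = 10 to 30%; 0 = under 10%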. The conditions noted are these: dose 1.6 g ai/10a, 14th day after treatment. The procedure:
as §1, §2

The subject of data set [5] is barnyardgrass (Ec). The data set is described as follows: Test Example 2: herbicidal effects by upland field soil treatment.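 Note: grade of growth control; 5 = at least 90%; 4 = 70 to 90%; 3 = 50 to 70%; 2 = 30 to 50%; 1 = 10 to 30%; 0 = under 10%.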 The data set is classed as in vivo. The conditions noted are these: 100 g of the active ingredient per 10 ares. An excerpt: (§3) (Test on Herbicidal Effects by Upland Field Soil Treatment)
In data set [6] the test system is Digitaria ciliaris (Di). Described as above. It counts as in vivo. The conditions noted are these: 100 g of the active ingredient per 10 ares.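 Note: grade of growth control; 5 = at least 90%; 4 = 70 to 90%; 3 = 50 to 70%; 2 = 30 to 50%; 1 = 10 to 30%; 0 = under 10%.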
From the text: as §3

The test system of data set [7] is common lambsquarters (Ch). The description is as above. Particulars: 100 g of the active ingredient per 10 ares. The data set is classed as in vivo.
From the text: as §3

Data set [8] relates to pale smartweed (Po). Described as above. The conditions noted are these: 100 g of the active ingredient per 10 ares. It counts as in vivo.
From the text: as §3

Data set [9] has as its system slender amaranth (Am). The description is as above. It counts as in vivo. Particulars: 100 g of the active ingredient per 10 ares.
From the text: as §3

The subject of data set [10] is rice flatsedge (Ci). The data set is described as above. Particulars: 100 g of the active ingredient per 10 ares. The data set is classed as in vivo.
From the text: as §3

For data set [11], the system named is Diaitaria ciliaris (Di). Put plainly: Test Example 3: herbicidal effects by upland field foliage treatment. Further details: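 grade of growth control; 5 = at least 90%; 4 = 70 to 90%; 3 = 50 to 70%; 2 = 30 to 50%; 1 = 10 to 30%; 0 = under 10%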. The data set is classed as in vivo. Put shortly: (§4)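 Seeds → sand pot (120 cm^2) → soil cover → greenhouse 2 wk → foliar treatment → greenhouse → herbicidal score at 14 d post-treatment against graded standards.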
The subject of data set [12] is barnyardgrass (Ec). The description is as above. The data set is classed as in vivo. Also on record: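 grade of growth control; 5 = at least 90%; 4 = 70 to 90%; 3 = 50 to 70%; 2 = 30 to 50%; 1 = 10 to 30%; 0 = under 10%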. Put shortly:
as §4

In data set [13] the test system is common lambsquarters (Ch). The data set is described as above. Also on record: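 grade of growth control; 5 = at least 90%; 4 = 70 to 90%; 3 = 50 to 70%; 2 = 30 to 50%; 1 = 10 to 30%; 0 = under 10%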. The data set is classed as in vivo. Put shortly:
as §4

For data set [14], the system named is pale smartweed (Po). The description is as above. The data set is classed as in vivo. Also on record: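 grade of growth control; 5 = at least 90%; 4 = 70 to 90%; 3 = 50 to 70%; 2 = 30 to 50%; 1 = 10 to 30%; 0 = under 10%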. A digest of the protocol:
as §4

Data set [15] deals with slender amaranth (Am). The data set is described as above. The data set is classed as in vivo. Also on record: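 grade of growth control; 5 = at least 90%; 4 = 70 to 90%; 3 = 50 to 70%; 2 = 30 to 50%; 1 = 10 to 30%; 0 = under 10%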. Put shortly: as §4
Data set [16] concerns rice flatsedge (Ci). The description is as above. The data set is classed as in vivo. Further details: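 grade of growth control; 5 = at least 90%; 4 = 70 to 90%; 3 = 50 to 70%; 2 = 30 to 50%; 1 = 10 to 30%; 0 = under 10%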. A digest of the protocol: as §4
In data set [17] the test system is wheat (Tr). Put plainly: Test Example 9: crop plant selectivity by upland field foliage treatment (wheat), phytotoxicity.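 Note: grade of crop injury; 5 = at least 90%; 4 = 70 to 90%; 3 = 50 to 70%; 2 = 30 to 50%; 1 = 10 to 30%; 0 = under 10%.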 Particulars: dose 1.6 g ai/10a, 14th day after treatment. How it is done: as §1, §2
Data set [18] concerns bulrush (Sc). Put plainly: Test Example 1: herbicidal effects by paddy field soil treatment.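 Note: grade of growth control; 5 = at least 90%; 4 = 70 to 90%; 3 = 50 to 70%; 2 = 30 to 50%; 1 = 10 to 30%; 0 = under 10%.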 It counts as in vivo. Particulars: 100 g of the active ingredient per 10 ares, 21st day after the application, index 0-5 of Table 47. Put shortly: (§5)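 Greenhouse pot test in flooded paddy soil, dosed at 100 g a.i. per 10 ares; effect scored on day 21.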
For data set [19], the system named is barnyardgrass (Ec). Described as above. The data set is classed as in vivo. The conditions noted are these: 100 g of the active ingredient per 10 ares, 21st day after the application, index 0-5 of Table 47. Put shortly:
as §5

Data set [20] deals with monochoria (Mo). The description is as above. Particulars: 100 g of the active ingredient per 10 ares, 21st day after the application, index 0-5 of Table 47. The data set is classed as in vivo. Put shortly: as §5
Setting [21] is: evaluated on the 21st day after application.
The mark [22] stands for this setting: 100 g active ingredient per 10 ares, evaluated 14th day after treatment.
[23] abbreviates: 21st day after the application, index 0-5 of Table 47.
Where [24] appears, read: 100 g of the active ingredient per 10 ares, evaluated on the 14th day after treatment.

Structures are written as SMILES.

On to `CCOC(C)c1cc2c(-c3ccc(C(F)(F)F)n(C)c3=O)c(F)cc(Cl)c2o1` (stereo not shown) [Compound 4-36], for which the “Herbicidal effects Ch” value in data set [1], in data set [7] (setting [21]) and in data set [13] (setting [22]) was 5 in each case. In addition, the “Herbicidal effects Po” value in data set [2], in data set [8] (setting [21]) and in data set [14] (setting [22]) was 5 each time. For the same compound, the “Herbicidal effects Am” value in [3], in data set [9] (setting [21]) and in [15] (setting [22]) was 5 in each case. In addition, the “Herbicidal effects Ab” value in [4] is recorded as 5. The “Herbicidal effects Ec” value in data set [5] (setting [21]) and in [12] (setting [22]) was 5 in each case. Also, the “Herbicidal effects Di” value in data set [6] (setting [21]) and in [11] (setting [22]) was 5 each time. In addition, the “Herbicidal effects Ci” value in data set [10] (setting [21]) and in data set [16] (setting [22]) was 5 throughout. The “Phytotoxicity Tr” value in data set [17] is recorded as 2.
On to `CCC(OC)c1cc2c(-c3ccc(C(F)(F)F)n(C)c3=O)c(F)cc(Cl)c2o1` (stereo not shown) [Compound 4-39], for which the “Herbicidal effects Ch” value in [1] is given as 5. Besides, in data set [2], the “Herbicidal effects Po” value turned out to be 5. The “Herbicidal effects Am” value in [3] was determined as 5. Further, in data set [4], the “Herbicidal effects Ab” value is 5. For the same compound, the “Phytotoxicity Tr” value in data set [17] was 2.
Turning to `C=CCOc1cc(-c2cn(C)c(C(F)(F)F)cc2=O)c(F)cc1Cl` [Compound 6-8], the “Herbicidal effects Ec” value in [5] (setting [21]), in data set [12] (setting [22]) and in data set [19] was 5 in each case. The “Herbicidal effects Di” value in data set [6] (setting [21]) and in [11] (setting [22]) was 5 each time. Also, the “Herbicidal effects Ch” value in data set [7] (setting [21]) and in data set [13] (setting [22]) was 5 each time. Besides, the “Herbicidal effects Po” value in data set [8] (setting [21]) and in data set [14] (setting [22]) was 5 in each case. The “Herbicidal effects Am” value in [9] (setting [21]) and in data set [15] (setting [22]) was 5 in each case. The “Herbicidal effects Ci” value in data set [10] (setting [21]) and in [16] (setting [22]) was 5 each time. Also, in data set [18], the “Herbicidal effects Sc” value was found to be 5. Besides, the “Herbicidal effects Mo” value in [20] is reported as 5.
On to `Cc1cc(-c2ccc(Cl)cc2Cl)c(=O)n(C)c1C(F)(F)F` [Compound No. 1-11], for which the “Herbicidal effects Ec” value in data set [5] (setting [23]), in [12] (setting [24]) and in data set [19] was 5 throughout. Moreover, the “Herbicidal effects Di” value in data set [6] (setting [23]) and in data set [11] (setting [24]) was 5 throughout. Moreover, the “Herbicidal effects Ch” value in data set [7] (setting [23]) and in [13] (setting [24]) was 5 each time. The “Herbicidal effects Po” value in data set [8] (setting [23]) and in data set [14] (setting [24]) was 5 throughout. Further, the “Herbicidal effects Am” value in data set [9] (setting [23]) and in data set [15] (setting [24]) was 5 throughout. Besides, the “Herbicidal effects Ci” value in [10] (setting [23]) and in [16] (setting [24]) was 5 throughout. Further, the “Herbicidal effects Sc” value in data set [18] was 5. Also, the “Herbicidal effects Mo” value in [20] is recorded as 5.
As for `Cn1c(C(F)(F)F)ccc(-c2cc(C=O)c(Cl)cc2F)c1=O` [Compound No. 1-81, 5-[1--methyl-6-trifluoromethyl-2(1H)-pyridon-3-yl]-2-chloro-4-fluorobenzaldehyde], the “Herbicidal effects Ec” value in [5] (setting [23]), in data set [12] (setting [24]) and in data set [19] was 5 throughout. Also, the “Herbicidal effects Di” value in [6] (setting [23]) and in data set [11] (setting [24]) was 5 throughout. Also, the “Herbicidal effects Ch” value in data set [7] (setting [23]) and in data set [13] (setting [24]) was 5 throughout. For the same compound, the “Herbicidal effects Po” value in data set [8] (setting [23]) and in data set [14] (setting [24]) was 5 throughout. Besides, the “Herbicidal effects Am” value in [9] (setting [23]) and in data set [15] (setting [24]) was 5 throughout. The “Herbicidal effects Ci” value in data set [10] (setting [23]) and in data set [16] (setting [24]) was 5 each time. Moreover, the “Herbicidal effects Sc” value in data set [18] was 5. In addition, the “Herbicidal effects Mo” value in data set [20] was found to be 5.
As to `Cn1c(C(F)(F)F)ccc(-c2cc(C(=O)O)c(Cl)cc2F)c1=O` [Compound No. 1-141, 5-(1-methyl-6-trifluoromethyl-2(1H)-pyridon-3-yl)-2-chloro-4-fluorobenzoic acid], the entries for the “Herbicidal effects Ec” value in data set [5] (setting [23]), in [12] (setting [24]) and in data set [19] were 4, 5 and 5, respectively. Besides, the “Herbicidal effects Di” value in data set [6] (setting [23]) and in data set [11] (setting [24]) was 5 throughout. For the same compound, the “Herbicidal effects Ch” value in [7] (setting [23]) and in [13] (setting [24]) was 5 each time. The “Herbicidal effects Po” value in data set [8] (setting [23]) and in [14] (setting [24]) was 5 each time. The “Herbicidal effects Am” value in data set [9] (setting [23]) and in [15] (setting [24]) was 5 each time. Further, the “Herbicidal effects Ci” value in data set [10] (setting [23]) and in data set [16] (setting [24]) was 5 throughout. The “Herbicidal effects Sc” value in data set [18] is 5. The “Herbicidal effects Mo” value in data set [20] is listed as 5.
